Literature values in patent publication US20240058412A1, “MODIFIED RELEASE FORMULATION COMPRISING WITHANOLIDES” (INVENTIA HEALTHCARE LIMITED, priority 2021, published 2024).

Conditions: mice plasma, oral Withania somnifera extract 1000 mg/kg

CC1=C(CO)C(=O)O[C@@H]([C@@H](C)[C@H]2CC[C@H]3[C@@H]4C[C@H]5O[C@]56[C@@H](O)C=CC(=O)[C@]6(C)[C@H]4CC[C@]23C)C1 [withaferin-A]
half-life: 59.92 ± 15.90 min

CC1=C(C)C(=O)O[C@@H]([C@](C)(O)[C@H]2CC[C@H]3[C@@H]4[C@@H]5O[C@@H]5[C@@]5(O)CC=CC(=O)[C@]5(C)[C@H]4CC[C@]23C)C1 [withanolide-A]
half-life: 45.22 ± 9.95 min
